According to patent US20240124404A1, “COMPOSITION FOR TREATING DISEASES RELATED TO ADVANCED GLYCATION END PRODUCTS COMPRISING INDOLE DERIVATIVE” (METACEN THERAPEUTICS, priority 2021, published 2024):
Where two headings read alike, the source gives them in different places.

Tests used:
[1] = Methylglyoxal (MGO) trapping ability: fluorescence intensity of reaction product; format: biochemical; details: compound 1.0 mM in MGO+PBS pH 7.4, 37° C., 1 day; ex 355 nm / em 460 nm; 10×10^3 or more = trapping ability
Experimental: Methylglyoxal (MGO) is a main precursor of advanced glycation end products that cause complications due to diabetes mellitus. Successful trapping of methylglyoxal (MGO) can inhibit the production of advanced glycation end products.
A mixture was prepared by adding methylglyoxal (MGO) to phosphate buffered saline (PBS, Cat no. 10010023, pH 7.4). […] The fluorescence intensity of the reaction product was measured at an excitation wavelength of 355 nm and an emission wavelength of 460 nm using a VICTOR™X3 multilabel plate reader.
The higher the fluorescence intensity measured from the reaction product, the higher the ability of the compound to trap methylglyoxal. In addition, in this experimental example, when the fluorescence intensity was 10×10^3 or more, it was determined that the compound had the ability to trap methylglyoxal.

[2] = Methylglyoxal (MGO) trapping ability: free MGO concentration by HPLC; format: biochemical; details: compound 1:1 with MGO in PBS pH 7.4, 37° C.; for MGO concentration on day 7: MGO + PBS control 436.38; for MGO concentration on day 1: MGO + PBS control 499.53
Experimental: Specifically, a mixture was prepared by adding methylglyoxal (MGO) to phosphate buffered saline (PBS, Cat no. 10010023, pH 7.4). The compound of the present invention was added to the mixture (MGO+PBS) at a concentration of 1:1 with methylglyoxal (MGO) and reacted, and then cultured at 37° C. for 1 day.

SH-SY5Y cells = test: Protection against MGO-induced cytotoxicity in SH-SY5Y cell line (MTT); details: Homo sapiens
Experimental: Specifically, SH-SY5Y cells were dispensed at 2×10^4 cells/well in a 96 well plate. Each cell line was pre-/post-treated with the compound of the present invention at a concentration of 500 nM or aminoguanidine (AG) at a concentration of 1 mM for 1 hour, and then pre-/post-treated with 500 μM MGO, and cultured for 24 hours. The medium was removed and then treated with 0.5 mg/ml 3-(4,5-dimethylthiazol-2-yl)-2,5-diphenyltetrazolium bromide (MTT) solution for 1 hour, and the reduced formazan was dissolved in 150 μl of DMSO, and the cell viability was measured by a microspectrophotometer at a wavelength of 570 nm.

N2a cells = test: Protection against MGO-induced cytotoxicity in N2a cell line (MTT); details: Mus musculus
Experimental: Specifically, N2a cells were dispensed at 2×10^4 cells/well in a 96 well plate. Each cell line was pre-/post-treated with the compound of the present invention at a concentration of 500 nM or aminoguanidine (AG) at a concentration of 1 mM for 1 hour, and then pre-/post-treated with 500 μM MGO, and cultured for 24 hours. The medium was removed and then treated with 0.5 mg/ml 3-(4,5-dimethylthiazol-2-yl)-2,5-diphenyltetrazolium bromide (MTT) solution for 1 hour, and the reduced formazan was dissolved in 150 μl of DMSO, and the cell viability was measured by a microspectrophotometer at a wavelength of 570 nm.

[3] = 24 h, read-out: Cell viability, Post-treatment
[4] = read-out: Cell viability, Pre-treatment

N[C@H](CO)Cc1c[nH]c2ccc(O)cc12 [Compound 29, (S)-3-(2-amino-3-hydroxypropyl)-1H-indol-5-ol (L-tryptophanol)]
Fluorescence intensity on day 1 (×10^3) [1]: 362.50 ± 17.85 ×10^3 | MGO concentration on day 7 [2]: 0 µM | MGO concentration on day 1 [2]: 18.56 µM

N=C(N)NN [AG, aminoguanidine]
viability at 1000 µM (SH-SY5Y cells; [3]): 52.01 ± 0.24% | viability at 1000 µM (SH-SY5Y cells; [4]): 84.7 ± 1.75% | viability at 1000 µM (N2a cells; [3]): 102 ± 11.9% | viability at 1000 µM (N2a cells; [4]): 111 ± 9.32%

N#CC(N)Cc1c[nH]c2ccc(O)cc12 (stereo not shown) [Compound 31, 2-amino-3-(5-hydroxy-1H indol-3-yl)propanenitrile]
Fluorescence intensity on day 1 (×10^3) [1]: 14.58 ± 0.34 ×10^3 | MGO concentration on day 7 [2]: 0 µM | MGO concentration on day 1 [2]: 7.30 µM

NCC(N)Cc1c[nH]c2ccc(O)cc12 (stereo not shown) [Compound 30, 3-(2,3-diaminopropyl)-1H-indol-5-ol]
Fluorescence intensity on day 1 (×10^3) [1]: 156.92 ± 1.22 ×10^3 | MGO concentration on day 7 [2]: 16.43 µM | MGO concentration on day 1 [2]: 235.58 µM
